Measurements taken from patent publication US8975078B2, “Method for expressing a mouse olfactory receptor Olfr15 on a cell membrane” (Panasonic Corporation, priority 2011, dated 2015).

Legend:
[1] = tested on: mouse olfactory receptor Olfr15; assay: Expression rate of mouse olfactory receptor Olfr15 on the cell membrane of transfected HEK293T cells (immunofluorescence); assay type: cell-based
HEK293T cells = assay: Cell viability rate of transfected HEK293T cells at the time of immunofluorescence; assay type: cell-based
Protocol: The liquid culture medium containing HEK293T cells was added into a Petri dish. The HEK293T cells adhered spontaneously to the inner wall of the Petri dish.
The plasmid (RTP1S), the plasmid (Rho-myc-Olfr15), and a plasmid (purchased from Evrogen, trade name: pMkate2) coding for a membrane marker were added to the Petri dish, and the HEK293T cells were transfected with these three plasmids by a lipofection method. The liquid culture medium was maintained under an air atmosphere containing 5% CO2 under a temperature of 37 degrees Celsius. In this way, as shown in the uppermost part of FIG. 4, the vessel containing the transformed HEK293 cells and the liquid culture medium was prepared.
Twenty four hours after the transfection, a liquid culture medium containing chlorpromazine was added into the vessel. […]
Subsequently, the liquid culture medium was removed. Then, the liquid culture medium not containing chlorpromazine (see FIG. 2) was added to the vessel. Thus, the liquid culture medium was exchanged.
Four hours after the exchange of the liquid culture medium, the distribution of the mouse olfactory receptor Olfr15 on the cell membrane was evaluated in accordance with the immunofluorescence technique disclosed in Non Patent Literature 2. For example, the expression rate on the cell membrane and the cell viability rate were calculated in accordance with the following formulas. (Expression rate on the cell membrane)=(fluorescence intensity on the cell membrane)/(fluorescence intensity of one entire cell) (Cell viability rate)=(the number of the living cells when the immunofluorescence technique was performed)/(the number of all the cells when the immunofluorescence technique was performed)
For example, the expression rate and the cell viability rate of not less than ten cells were calculated. Then, each of the average value of these rates was calculated. “Expression rate on the cell membrane” and “Cell viability rate” described in Table 3 are the average rates thereof.

[2] = chlorpromazine 5 μg/ml, immersion time 0.5 hour
[3] = chlorpromazine 5 μg/ml, immersion time 1 hour
[4] = chlorpromazine 5 μg/ml, immersion time 2 hour
[5] = chlorpromazine 5 μg/ml, immersion time 4 hour
[6] = chlorpromazine 5 μg/ml, immersion time 9 hour
[7] = chlorpromazine 5 μg/ml, immersion time 20 hour
[8] = chlorpromazine 10 μg/ml, immersion time 0.5 hour
[9] = chlorpromazine 10 μg/ml, immersion time 1 hour
[10] = chlorpromazine 10 μg/ml, immersion time 2 hour
[11] = chlorpromazine 10 μg/ml, immersion time 4 hour
[12] = chlorpromazine 10 μg/ml, immersion time 9 hour
[13] = chlorpromazine 10 μg/ml, immersion time 20 hour
[14] = chlorpromazine 25 μg/ml, immersion time 0.5 hour
[15] = chlorpromazine 25 μg/ml, immersion time 1 hour
[16] = chlorpromazine 25 μg/ml, immersion time 2 hour

With `CN(C)CCCN1c2ccccc2Sc2ccc(Cl)cc21` [chlorpromazine] the “Expression rate on the cell membrane (%)” value ([1]; Comparative Example 2: as Example 1 (chlorpromazine 25 μg/ml, 20 hour) but plasmid (RTP1S) not used) was 9.7%, the “Expression rate on the cell membrane (%)” value [1, 2] was 11.8% and the “Expression rate on the cell membrane (%)” value [1, 3] was 8.1%. The “Expression rate on the cell membrane (%)” value [1, 4] was 12.3%, the “Expression rate on the cell membrane (%)” value [1, 5] was 8.5% and the “Expression rate on the cell membrane (%)” value [1, 6] was 11.5%. For the same molecule, the “Expression rate on the cell membrane (%)” value [1, 7] was 14.1%, the “Expression rate on the cell membrane (%)” value [1, 8] was 9.6% and the “Expression rate on the cell membrane (%)” value [1, 9] was 9.9%. The “Expression rate on the cell membrane (%)” value [1, 10] was 19.7%, the “Expression rate on the cell membrane (%)” value [1, 11] was 16.7% and the “Expression rate on the cell membrane (%)” value [1, 12] was 17.4%. The “Expression rate on the cell membrane (%)” value [1, 13] was 19.2%, the “Expression rate on the cell membrane (%)” value [1, 14] was 15.1% and the “Expression rate on the cell membrane (%)” value [1, 15] was 29.5%. For the same molecule, the “Expression rate on the cell membrane (%)” value [1, 16] was 24.0%, the “Expression rate on the cell membrane (%)” value ([1]; chlorpromazine 25 μg/ml, immersion time 20 hour, HEK293T with RTP1S and Rho-myc-Olfr15 plasmids, 4 h after medium exchange) was 28.4% and the “expression rate of the olfactory receptor Olfr15 on the cell membrane (change when added)” value ([1]; statement on Table 3, versus medium without chlorpromazine) was “increases”. The “Cell viability rate (%)” value (HEK293T cells; [2]) was 81%, the “Cell viability rate (%)” value (HEK293T cells; [3]) was 88% and the “Cell viability rate (%)” value (HEK293T cells; [4]) was 89%. For the same molecule, the “Cell viability rate (%)” value (HEK293T cells; [5]) was 82%, the “Cell viability rate (%)” value (HEK293T cells; [6]) was 79% and the “Cell viability rate (%)” value (HEK293T cells; [7]) was 68%. For the same molecule, the “Cell viability rate (%)” value (HEK293T cells; [8]) was 89%, the “Cell viability rate (%)” value (HEK293T cells; [9]) was 82% and the “Cell viability rate (%)” value (HEK293T cells; [10]) was 84%. For the same molecule, the “Cell viability rate (%)” value (HEK293T cells; [11]) was 81%, the “Cell viability rate (%)” value (HEK293T cells; [12]) was 41% and the “Cell viability rate (%)” value (HEK293T cells; [13]) was 50%. For the same molecule, the “Cell viability rate (%)” value (HEK293T cells; [14]) was 89%, the “Cell viability rate (%)” value (HEK293T cells; [15]) was 55% and the “Cell viability rate (%)” value (HEK293T cells; [16]) was 41%. For the same molecule, the “Cell viability rate (%)” value (HEK293T cells; chlorpromazine 25 μg/ml, immersion time 20 hour) was 11%.

For `OC[C@H]1O[C@@](CO)(O[C@H]2O[C@H](CO)[C@@H](O)[C@H](O)[C@H]2O)[C@@H](O)[C@@H]1O` [sucrose], the “Expression rate on the cell membrane (%)” value ([1]; Comparative Example 4: sucrose 250 mM instead of chlorpromazine, otherwise as Example 1) was 12.5%.
